# Test results as given in a compilation of properties of binary mixtures (doi:10.1016/j.jiec.2013.02.010).
# Experiment: xn = mol fraction of the nth substance listed
# Settings: 101 kPa
structure (smiles),measurement,setting,value
CCCC[n+]1ccn(C)c1.[Cl-] + CCO,viscosity,"293.15 K, x2 = 0.4991",75 mPa·s
same,viscosity,"293.15 K, x2 = 0.5533",47.9 mPa·s
same,viscosity,"293.15 K, x2 = 0.6011",30.6 mPa·s
same,viscosity,"293.15 K, x2 = 0.7003",12.1 mPa·s
same,viscosity,"293.15 K, x2 = 0.8002",5.23 mPa·s
same,viscosity,"293.15 K, x2 = 0.9",2.46 mPa·s
same,electrical conductivity,"298.15 K, x2 = 0.4991",0.326 S/m
same,viscosity,"298.15 K, x2 = 0.4991",61.4 mPa·s
same,electrical conductivity,"298.15 K, x2 = 0.5533",0.483 S/m
same,viscosity,"298.15 K, x2 = 0.5533",37.5 mPa·s
same,electrical conductivity,"298.15 K, x2 = 0.6011",0.648 S/m
same,viscosity,"298.15 K, x2 = 0.6011",23.8 mPa·s
same,electrical conductivity,"298.15 K, x2 = 0.9",1.38 S/m
same,viscosity,"298.15 K, x2 = 0.9",2.24 mPa·s
same,electrical conductivity,"298.15 K, x2 = 0.9501",0.927 S/m
same,viscosity,"298.15 K, x2 = 0.9501",1.62 mPa·s
same,electrical conductivity,"298.15 K, x2 = 0.975",0.52 S/m
same,viscosity,"298.15 K, x2 = 0.975",1.29 mPa·s
same,viscosity,"303.15 K, x2 = 0.5533",31.1 mPa·s
same,viscosity,"303.15 K, x2 = 0.7003",9.2 mPa·s
same,viscosity,"303.15 K, x2 = 0.8002",4.25 mPa·s
same,viscosity,"303.15 K, x2 = 0.9",2.06 mPa·s
same,viscosity,"308.15 K, x2 = 0.4991",38.3 mPa·s
same,viscosity,"308.15 K, x2 = 0.5533",25.6 mPa·s
same,viscosity,"308.15 K, x2 = 0.6011",17 mPa·s
same,viscosity,"308.15 K, x2 = 0.7003",8.2 mPa·s
same,viscosity,"308.15 K, x2 = 0.8002",3.84 mPa·s
same,viscosity,"308.15 K, x2 = 0.9",1.92 mPa·s
same,viscosity,"308.15 K, x2 = 0.9501",1.35 mPa·s
CCCC[n+]1ccn(C)c1.[Cl-] + O,viscosity,"293.15 K, x2 = 0.5535",141 mPa·s
same,viscosity,"293.15 K, x2 = 0.6132",86 mPa·s
same,viscosity,"293.15 K, x2 = 0.7033",39.4 mPa·s
same,viscosity,"293.15 K, x2 = 0.8034",15.5 mPa·s
same,viscosity,"293.15 K, x2 = 0.8999",5.3 mPa·s
same,electrical conductivity,"298.15 K, x2 = 0.4982",0.32 S/m
same,viscosity,"298.15 K, x2 = 0.4982",163 mPa·s
same,electrical conductivity,"298.15 K, x2 = 0.5535",0.502 S/m
same,viscosity,"298.15 K, x2 = 0.5535",105 mPa·s
same,electrical conductivity,"298.15 K, x2 = 0.6132",0.844 S/m
same,viscosity,"298.15 K, x2 = 0.6132",64.5 mPa·s
same,electrical conductivity,"298.15 K, x2 = 0.7033",1.54 S/m
same,viscosity,"298.15 K, x2 = 0.7033",30.4 mPa·s
same,electrical conductivity,"298.15 K, x2 = 0.8999",5.31 S/m
same,viscosity,"298.15 K, x2 = 0.8999",4.38 mPa·s
same,electrical conductivity,"298.15 K, x2 = 0.9502",5.98 S/m
same,viscosity,"298.15 K, x2 = 0.9502",2.22 mPa·s
same,electrical conductivity,"298.15 K, x2 = 0.975",4.98 S/m
same,viscosity,"298.15 K, x2 = 0.975",1.52 mPa·s
same,viscosity,"303.15 K, x2 = 0.4982",118 mPa·s
same,viscosity,"303.15 K, x2 = 0.5535",83 mPa·s
same,viscosity,"303.15 K, x2 = 0.6132",50.4 mPa·s
same,viscosity,"303.15 K, x2 = 0.7033",24.5 mPa·s
same,viscosity,"303.15 K, x2 = 0.8034",10.5 mPa·s
same,viscosity,"303.15 K, x2 = 0.9502",1.94 mPa·s
same,viscosity,"308.15 K, x2 = 0.5535",61.6 mPa·s
same,viscosity,"308.15 K, x2 = 0.6132",38.7 mPa·s
same,viscosity,"308.15 K, x2 = 0.7033",20 mPa·s
same,viscosity,"308.15 K, x2 = 0.8034",8.69 mPa·s
same,viscosity,"308.15 K, x2 = 0.8999",3.3 mPa·s
same,viscosity,"308.15 K, x2 = 0.9502",1.74 mPa·s
CCCC[n+]1ccn(C)c1.[Cl-] + CC#N,viscosity,"293.15 K, x2 = 0.5028",111 mPa·s
same,viscosity,"293.15 K, x2 = 0.5548",60.5 mPa·s
same,viscosity,"293.15 K, x2 = 0.6007",38.5 mPa·s
same,viscosity,"293.15 K, x2 = 0.7003",11.9 mPa·s
same,viscosity,"293.15 K, x2 = 0.8",3.9 mPa·s
same,viscosity,"293.15 K, x2 = 0.9002",1.17 mPa·s
same,viscosity,"293.15 K, x2 = 0.9499",0.69 mPa·s
same,electrical conductivity,"298.15 K, x2 = 0.502",0.29 S/m
same,viscosity,"298.15 K, x2 = 0.502",76 mPa·s
same,electrical conductivity,"298.15 K, x2 = 0.5483",0.4 S/m
same,viscosity,"298.15 K, x2 = 0.5483",53.6 mPa·s
same,electrical conductivity,"298.15 K, x2 = 0.6038",0.578 S/m
same,viscosity,"298.15 K, x2 = 0.6038",28.4 mPa·s
same,electrical conductivity,"298.15 K, x2 = 0.7021",1.03 S/m
same,viscosity,"298.15 K, x2 = 0.7021",10 mPa·s
same,electrical conductivity,"298.15 K, x2 = 0.9002",1.9 S/m
same,viscosity,"298.15 K, x2 = 0.9002",1.12 mPa·s
same,electrical conductivity,"298.15 K, x2 = 0.9499",1.7 S/m
same,viscosity,"298.15 K, x2 = 0.9499",0.63 mPa·s
same,electrical conductivity,"298.15 K, x2 = 0.975",1.3 S/m
same,viscosity,"298.15 K, x2 = 0.975",0.46 mPa·s
same,viscosity,"303.15 K, x2 = 0.5065",63.1 mPa·s
same,viscosity,"303.15 K, x2 = 0.5524",40.2 mPa·s
same,viscosity,"303.15 K, x2 = 0.6025",25.5 mPa·s
same,viscosity,"303.15 K, x2 = 0.7003",9.3 mPa·s
same,viscosity,"303.15 K, x2 = 0.8007",3.4 mPa·s
same,viscosity,"303.15 K, x2 = 0.9002",1.06 mPa·s
same,viscosity,"303.15 K, x2 = 0.9499",0.57 mPa·s
same,viscosity,"308.15 K, x2 = 0.5028",55.4 mPa·s
same,viscosity,"308.15 K, x2 = 0.5548",33.3 mPa·s
same,viscosity,"308.15 K, x2 = 0.6007",22 mPa·s
same,viscosity,"308.15 K, x2 = 0.7003",8.5 mPa·s
same,viscosity,"308.15 K, x2 = 0.8",3.04 mPa·s
same,viscosity,"308.15 K, x2 = 0.9002",1.02 mPa·s
same,viscosity,"308.15 K, x2 = 0.9499",0.53 mPa·s
CCCC[n+]1ccn(C)c1.[Cl-] + CO,viscosity,"293.15 K, x2 = 0.6026",23.2 mPa·s
same,viscosity,"293.15 K, x2 = 0.7002",8.4 mPa·s
same,viscosity,"293.15 K, x2 = 0.8008",3.41 mPa·s
same,viscosity,"293.15 K, x2 = 0.8999",1.63 mPa·s
same,viscosity,"293.15 K, x2 = 0.95",0.95 mPa·s
same,electrical conductivity,"298.15 K, x2 = 0.5213",0.632 S/m
same,viscosity,"298.15 K, x2 = 0.5213",37.6 mPa·s
same,electrical conductivity,"298.15 K, x2 = 0.5458",0.777 S/m
same,viscosity,"298.15 K, x2 = 0.5458",32.5 mPa·s
same,electrical conductivity,"298.15 K, x2 = 0.5925",1.08 S/m
same,viscosity,"298.15 K, x2 = 0.5925",20.4 mPa·s
same,electrical conductivity,"298.15 K, x2 = 0.7996",3.46 S/m
same,viscosity,"298.15 K, x2 = 0.7996",3.25 mPa·s
same,electrical conductivity,"298.15 K, x2 = 0.9007",4.08 S/m
same,viscosity,"298.15 K, x2 = 0.9007",1.38 mPa·s
same,electrical conductivity,"298.15 K, x2 = 0.95",3.32 S/m
same,viscosity,"298.15 K, x2 = 0.95",0.88 mPa·s
same,electrical conductivity,"298.15 K, x2 = 0.975",2.24 S/m
same,viscosity,"298.15 K, x2 = 0.975",0.68 mPa·s
same,viscosity,"303.15 K, x2 = 0.5173",36.4 mPa·s
same,viscosity,"303.15 K, x2 = 0.6044",16 mPa·s
same,viscosity,"303.15 K, x2 = 0.7993",2.86 mPa·s
same,viscosity,"303.15 K, x2 = 0.8999",1.25 mPa·s
same,viscosity,"303.15 K, x2 = 0.95",0.85 mPa·s
same,viscosity,"308.15 K, x2 = 0.5001",34.5 mPa·s
same,viscosity,"308.15 K, x2 = 0.5458",23.7 mPa·s
same,viscosity,"308.15 K, x2 = 0.6026",14.9 mPa·s
same,viscosity,"308.15 K, x2 = 0.7001",6.6 mPa·s
same,viscosity,"308.15 K, x2 = 0.8008",2.76 mPa·s
CO + CCCC[n+]1ccn(C)c1.[Cl-],viscosity,"293.15 K, x1 = 1",0.61 mPa·s
same,viscosity,"298.15 K, x1 = 1",0.55 mPa·s
same,viscosity,"303.15 K, x1 = 1",0.51 mPa·s
CCCC[n+]1ccn(C)c1.[Cl-] + CN(C)C=O,viscosity,"293.15 K, x2 = 0.5025",77 mPa·s
same,viscosity,"293.15 K, x2 = 0.5565",49.1 mPa·s
same,viscosity,"293.15 K, x2 = 0.6003",33.9 mPa·s
same,viscosity,"293.15 K, x2 = 0.6996",16.9 mPa·s
same,viscosity,"293.15 K, x2 = 0.8014",5.1 mPa·s
same,viscosity,"293.15 K, x2 = 0.95",1.32 mPa·s
same,electrical conductivity,"298.15 K, x2 = 0.501",0.218 S/m
same,viscosity,"298.15 K, x2 = 0.501",64 mPa·s
same,electrical conductivity,"298.15 K, x2 = 0.6134",0.439 S/m
same,viscosity,"298.15 K, x2 = 0.6134",24 mPa·s
same,electrical conductivity,"298.15 K, x2 = 0.6994",0.592 S/m
same,viscosity,"298.15 K, x2 = 0.6994",11.4 mPa·s
same,electrical conductivity,"298.15 K, x2 = 0.8017",0.857 S/m
same,viscosity,"298.15 K, x2 = 0.8017",4.44 mPa·s
same,electrical conductivity,"298.15 K, x2 = 0.9",0.922 S/m
same,viscosity,"298.15 K, x2 = 0.9",1.88 mPa·s
same,electrical conductivity,"298.15 K, x2 = 0.9502",0.766 S/m
same,viscosity,"298.15 K, x2 = 0.9502",1.21 mPa·s
same,viscosity,"303.15 K, x2 = 0.552",34.5 mPa·s
same,viscosity,"303.15 K, x2 = 0.7005",9.5 mPa·s
same,viscosity,"303.15 K, x2 = 0.9",1.73 mPa·s
same,viscosity,"308.15 K, x2 = 0.5007",39.9 mPa·s
same,viscosity,"308.15 K, x2 = 0.5564",25.5 mPa·s
same,viscosity,"308.15 K, x2 = 0.6001",17.5 mPa·s
same,viscosity,"308.15 K, x2 = 0.7",7.8 mPa·s
same,viscosity,"308.15 K, x2 = 0.95",1.04 mPa·s
CN(C)C=O + CCCC[n+]1ccn(C)c1.[Cl-],viscosity,"293.15 K, x1 = 1",0.86 mPa·s
same,viscosity,"298.15 K, x1 = 1",0.8 mPa·s
same,viscosity,"303.15 K, x1 = 1",0.78 mPa·s
same,viscosity,"308.15 K, x1 = 1",0.73 mPa·s
CCO + CCCC[n+]1ccn(C)c1.[Cl-],viscosity,"293.15 K, x1 = 1",1.19 mPa·s
same,viscosity,"298.15 K, x1 = 1",1.08 mPa·s
same,viscosity,"308.15 K, x1 = 1",0.89 mPa·s
CC#N + CCCC[n+]1ccn(C)c1.[Cl-],viscosity,"293.15 K, x1 = 1",0.36 mPa·s
same,viscosity,"298.15 K, x1 = 1",0.35 mPa·s
same,viscosity,"303.15 K, x1 = 1",0.32 mPa·s
O + CCCC[n+]1ccn(C)c1.[Cl-],viscosity,"293.15 K, x1 = 1",1.01 mPa·s
same,viscosity,"298.15 K, x1 = 1",0.89 mPa·s
same,viscosity,"303.15 K, x1 = 1",0.8 mPa·s
same,viscosity,"308.15 K, x1 = 1",0.72 mPa·s
